Test results as given in patent US12048704B2, “Method for treatment of cancer with combination of cold atmospheric plasma and a gene inhibitor” (Jerome Canady Research Institute for Advanced Biological …, priority 2019, dated 2024).

System: MDA-MB-231 cells
Assay: MTT cell viability assay with/without CAP treatment
Assay type: cell-based, Human
Settings: for cell viability (baseline toxicity), agent alone: MDA-MB-231, without CAP treatment, MTT 24 hours
Description: Human breast cancer cell lines T-47D, SK-BR-3, and BT-474, were purchased from ATCC (Manassas, Va., USA). MCF-7, MDA-MB-231, Hs578T, and HCC1806 were generously donated by Professor Kanaan' s laboratory at Howard University. All cell lines except SK-BR-3 were cultured in Roswell Park Memorial Institute (RPMI) 1640 Medium supplemented with 10% fetal bovine serum (Sigma-Aldrich, St. Louis, Mo., USA) and 1% Pen Strep (Thermo Fisher Scientific, Waltham, Mass., USA) in a 37° C. and 5% CO2 humidified incubator (Thermo Fisher Scientific, Waltham, Mass., USA). The exceptions for culture conditions include T-47D, which was additionally supplemented with 0.5 mg/mL insulin. SK-BR-3 was cultured in McCoy's 5A Medium. When cells reached approximately 80% confluence, cells were seeded at a concentration of 10^5 cells/well into 12-well plates (USA Scientific, Ocala, Fla., USA) with a 1 mL media volume per well for cell viability assays. MDA-MB-231 cells were transfected with siRNA and transfection reagent according to the manufacturer's instructions. Transfection of BCL2A1 esiRNA or control esiRNA was done at 13 pmol. Briefly, cells were seeded in a 12-well-plate at a density of 1×10^5 cells/well overnight in (RPMI) 1640 Medium supplemented with 10% fetal bovine serum (Sigma-Aldrich, St. Louis, Mo., USA) and 1% Pen Strep (Thermo Fisher Scientific, Waltham, Mass., USA) in a 37° C. and 5% CO2 humidified incubator. The media was replaced with antibiotics-free medium RPMI 2 minutes before the transfection. esiRNA was mixed with Lipofectamine RNAiMAX transfection reagent in 100 μl optimal medium at the required concentration of 13 pmol/mL and were incubated at room temperature for 30 min to form a complex and the mixture was supplemented to each well with optimal medium. Four hours after the transfection, the transfected cells were CAP treated. After 24 hours after the CAP treatment, cells viability was assessed by using MTT assay. Thiazolyl blue tetrazolium bromide (MTT) assay was performed on the cells 24 hours after plasma treatment following the manufacturer's protocol with all MTT assay reagents purchased from Sigma-Aldrich (St. Louis, Mo., USA). The absorbance of the dissolved compound was measured by BioTek Synergy HTX (Winooski, Vt., USA) microplate reader at 570 nm following standard procedure. All viability assays were repeated 3 times with at least 2 replicates each. Data was plotted by Microsoft Excel 2016 as the mean±standard error of the mean. A student t-test or a one-way analysis of variance (ANOVA) was used to check statistical significance where applicable. The differences were considered statistically significant for * p<0.05. A one-way multivariate analysis of variance (MANOVA) followed by a Post-Hoc test was used to check statistical significance where applicable. […] At 24 hrs after transfection with BCL2A1 esiRNA (13 pmol), as mentioned in methods section survival of treatments was determined by MTT assay. The data is represented by the SEM (n=3). (**** P<0.0001* p<0.05, ** p<0.01, *** p<0.001, Student's t-test) versus control. FIGS. 19A-19B show viability of triple cancer breast cancer cell line MDA-MB-231 with Gambogic acid, an antagonist of antiapoptotic Bc1-2 family (FIG. 19A) or CPI203 (FIG. 19B, a BET bromodomain inhibitor after CAP treatment. Bar graph represents MDA-MB-231 MTT cell viability assay after treatment with Gambogic acid (FIG. 19A) or CPI203 (FIG. 19B) in combination of with/without CAP treatment at 80 p Or 120 p 5 mins at 3 L/min He. The samples were compared to the mock control groups. The data is represented by the SEM (n=3). (* p<0.05, ** p<0.01, *** p<0.001, Student's t-test).

Compound | cell viability, CPI203 with CAP treatment (MDA-MB-231, 0.25 uM, p<0.05) | cell viability, CPI203 with CAP treatment (MDA-MB-231, 1uM, p<0.01) | cell viability, CPI203 with CAP treatment (MDA-MB-231, 5uM, p<0.001) | cell viability (baseline toxicity), agent alone | CAP-induced cell death, combination of CAP and agent (breast cancer cells, p<0.05) | cell viability in combination with CAP treatment compared to CAP treatment alone (MDA-MB-231, CAP 80 p or 120 p 5 mins at 3 L/min He, MTT 24 hours after CAP)
Cc1sc2c(c1C)C(c1ccc(Cl)cc1)=N[C@@H](CC(N)=O)c1nnc(C)n1-2 [CPI203] | significant reduction in cell viability | significant reduction in cell viability | significant reduction in cell viability | without any cytotoxicity by itself | dramatically increased the CAP-induced cell death | 
CC(C)=CCC[C@]1(C)C=Cc2c(O)c3c(c(CC=C(C)C)c2O1)O[C@]12C(=C[C@@H]4C[C@H]1C(C)(C)O[C@@]2(C/C=C(/C)C(=O)O)C4=O)C3=O [GA, gambogic acid] |  |  |  | cell viability decreased in all the 5 doses |  | no dose that significantly reduced the viability of cells
